# Source: ChEMBL document CHEMBL1201862, “PubChem BioAssay data set” (2004)
#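 Assay format: 96-well plates, 48-hour exposure. GI50 = concentration required for 50% inhibition of growth.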 Activity calls are given as the source filed them. No stated cut-off is given here; in the data, active = GI50 up to about 1.1 µM and inactive = higher.
# Tests used:
# Test in all cases: NCI anticancer screen, dose series, 48 h
# OVCAR-8 = tested on: OVCAR-8
# Malme-3M = tested on: Malme-3M
# UACC-257 = tested on: UACC-257
# NCI-H460 = tested on: NCI-H460
# PC-3 = tested on: PC-3
# SK-MEL-28 = tested on: SK-MEL-28
# SF-295 = tested on: SF-295
# LOX IMVI = tested on: LOX IMVI
# HCT-15 = tested on: HCT-15
# HT-29 = tested on: HT-29
# HOP-62 = tested on: HOP-62
# SNB-75 = tested on: SNB-75
# UO-31 = tested on: UO-31
# HOP-92 = tested on: HOP-92
# OVCAR-5 = tested on: OVCAR-5
# M14 = tested on: M14
# EKVX = tested on: EKVX
# SW-620 = tested on: SW-620
# RPMI-8226 = tested on: RPMI-8226
SMILES,GI50 (OVCAR-8),GI50 (Malme-3M),GI50 (UACC-257),GI50 (NCI-H460),GI50 (PC-3),GI50 (SK-MEL-28),GI50 (SF-295),GI50 (LOX IMVI),GI50 (HCT-15) [µM],GI50 (HT-29),GI50 (HOP-62),GI50 (SNB-75),GI50 (UO-31),GI50 (HOP-92),GI50 (OVCAR-5),GI50 (M14),GI50 (EKVX),GI50 (SW-620),GI50 (RPMI-8226)
CC(=O)OCC1OC(n2c3c(c(-c4ccc(Cl)cc4)c(C#N)c2=S)CCCC3)C(OC(C)=O)C(OC(C)=O)C1OC(C)=O (centres undefined),> 100 µM (inactive),56.8 µM (inactive),51.9 µM (inactive),42.5 µM (inactive),25.5 µM (inactive),32.4 µM (inactive),37.9 µM (inactive),44.9 µM (inactive),61.2,57.5 µM (inactive),97.3 µM (inactive),15.3 µM (inactive),4.4 µM (inactive),7.29 µM (inactive),> 100 µM (inactive),81.1 µM (inactive),,,
Cc1cc2nnn(C3CCCO3)c2cc1C (centres undefined),> 100 µM (inactive),> 100 µM (inactive),> 100 µM (inactive),> 100 µM (inactive),> 100 µM (inactive),,> 100 µM (inactive),,> 100,> 100 µM (inactive),> 100 µM (inactive),31.8 µM (inactive),,,> 100 µM (inactive),> 100 µM (inactive),> 100 µM (inactive),,
Nc1nc(-c2ccc3ccccc3c2)cc(-c2cc(-c3ccc4ccccc4c3)nc(N)n2)n1,> 100 µM (inactive),> 100 µM (inactive),> 100 µM (inactive),> 100 µM (inactive),> 100 µM (inactive),> 100 µM (inactive),> 100 µM (inactive),> 100 µM (inactive),> 100,> 100 µM (inactive),> 100 µM (inactive),,> 100 µM (inactive),> 100 µM (inactive),> 100 µM (inactive),> 100 µM (inactive),75.3 µM (inactive),> 100 µM (inactive),> 100 µM (inactive)
COC(=O)c1ccccc1C1CN=NC12Cc1c(C)cccc1C2=O (centres undefined),> 100 µM (inactive),> 100 µM (inactive),> 100 µM (inactive),> 100 µM (inactive),,> 100 µM (inactive),79.4 µM (inactive),45.1 µM (inactive),> 100,> 100 µM (inactive),> 100 µM (inactive),94.4 µM (inactive),73.1 µM (inactive),29.1 µM (inactive),71.8 µM (inactive),> 100 µM (inactive),> 100 µM (inactive),> 100 µM (inactive),> 100 µM (inactive)
COc1cccc(CCCNC(=O)Cc2cc(OC)c(OC)cc2CO)c1,> 100 µM (inactive),> 100 µM (inactive),> 100 µM (inactive),> 100 µM (inactive),> 100 µM (inactive),> 100 µM (inactive),,> 100 µM (inactive),> 100,> 100 µM (inactive),> 100 µM (inactive),> 100 µM (inactive),> 100 µM (inactive),> 100 µM (inactive),> 100 µM (inactive),> 100 µM (inactive),> 100 µM (inactive),> 100 µM (inactive),
OC1(CCc2ccccc2)COC(C(F)(F)F)(C(F)(F)F)C1 (centres undefined),> 100 µM (inactive),> 100 µM (inactive),,> 100 µM (inactive),> 100 µM (inactive),> 100 µM (inactive),> 100 µM (inactive),> 100 µM (inactive),> 100,> 100 µM (inactive),> 100 µM (inactive),> 100 µM (inactive),> 100 µM (inactive),,> 100 µM (inactive),> 100 µM (inactive),> 100 µM (inactive),> 100 µM (inactive),97.3 µM (inactive)
Cc1c[nH]c(C(=O)O)c1-c1cccn1-c1ccc(Cl)cc1[N+](=O)[O-],61.7 µM (inactive),,> 100 µM (inactive),> 100 µM (inactive),49.9 µM (inactive),> 100 µM (inactive),73.8 µM (inactive),> 100 µM (inactive),> 100,> 100 µM (inactive),63.2 µM (inactive),> 100 µM (inactive),45.9 µM (inactive),56 µM (inactive),> 100 µM (inactive),> 100 µM (inactive),> 100 µM (inactive),> 100 µM (inactive),
O=C1Oc2ccccc2C(=O)/C1=C\NC(=S)c1ccncc1,99.3 µM (inactive),,> 100 µM (inactive),57.7 µM (inactive),94.4 µM (inactive),45.9 µM (inactive),> 100 µM (inactive),> 100 µM (inactive),69.3,> 100 µM (inactive),84.1 µM (inactive),99.3 µM (inactive),45.7 µM (inactive),> 100 µM (inactive),> 100 µM (inactive),> 100 µM (inactive),> 100 µM (inactive),11 µM (inactive),
COc1cc(OC)c2c(C)cc(=O)oc2c1,55.7 µM (inactive),53 µM (inactive),93.8 µM (inactive),,> 100 µM (inactive),> 100 µM (inactive),75.9 µM (inactive),47.1 µM (inactive),56.5,43.4 µM (inactive),> 100 µM (inactive),25.9 µM (inactive),20.3 µM (inactive),,> 100 µM (inactive),> 100 µM (inactive),50.5 µM (inactive),54.5 µM (inactive),44.6 µM (inactive)
O=[N+]([O-])C(/C(Cl)=C(/Cl)N1CCOCC1)=C1\NCCO1,> 100 µM (inactive),> 100 µM (inactive),> 100 µM (inactive),> 100 µM (inactive),> 100 µM (inactive),> 100 µM (inactive),> 100 µM (inactive),,> 100,> 100 µM (inactive),> 100 µM (inactive),> 100 µM (inactive),> 100 µM (inactive),,> 100 µM (inactive),> 100 µM (inactive),> 100 µM (inactive),> 100 µM (inactive),> 100 µM (inactive)
O=P(O)(O)CC1OC(CO)C(O)C1O (centres undefined),> 100 µM (inactive),> 100 µM (inactive),> 100 µM (inactive),> 100 µM (inactive),> 100 µM (inactive),> 100 µM (inactive),> 100 µM (inactive),> 100 µM (inactive),> 100,> 100 µM (inactive),,> 100 µM (inactive),> 100 µM (inactive),> 100 µM (inactive),> 100 µM (inactive),> 100 µM (inactive),> 100 µM (inactive),> 100 µM (inactive),
CCNC1CC(C(C)(C)NCC)CC=C1C (centres undefined),> 100 µM (inactive),,> 100 µM (inactive),> 100 µM (inactive),> 100 µM (inactive),> 100 µM (inactive),> 100 µM (inactive),> 100 µM (inactive),> 100,> 100 µM (inactive),> 100 µM (inactive),> 100 µM (inactive),> 100 µM (inactive),> 100 µM (inactive),> 100 µM (inactive),> 100 µM (inactive),> 100 µM (inactive),> 100 µM (inactive),
COc1cc2c(cc1OC)C(=O)N1CCCC1C(=O)S2 (centres undefined),> 100 µM (inactive),> 100 µM (inactive),> 100 µM (inactive),> 100 µM (inactive),,> 100 µM (inactive),> 100 µM (inactive),> 100 µM (inactive),> 100,,> 100 µM (inactive),,> 100 µM (inactive),> 100 µM (inactive),> 100 µM (inactive),> 100 µM (inactive),> 100 µM (inactive),> 100 µM (inactive),> 100 µM (inactive)
OCCNCCN1CCN(CCCN2c3ccccc3Sc3ccc(C(F)(F)F)cc32)CC1,18 µM (inactive),29.5 µM (inactive),20.3 µM (inactive),23.2 µM (inactive),32 µM (inactive),23.6 µM (inactive),20.4 µM (inactive),14.5 µM (inactive),19.7,14 µM (inactive),21.4 µM (inactive),,,,25.5 µM (inactive),15.3 µM (inactive),28.1 µM (inactive),19.2 µM (inactive),> 100 µM (inactive)
COc1ccc(/C=C2\Sc3nnc(-c4ccccc4)n3N=C2c2cc(F)c(Cl)cc2Cl)cc1OC,48.9 µM (inactive),,> 100 µM (inactive),> 100 µM (inactive),66.2 µM (inactive),> 100 µM (inactive),> 100 µM (inactive),> 100 µM (inactive),19.1,12.1 µM (inactive),> 100 µM (inactive),,31.1 µM (inactive),37 µM (inactive),> 100 µM (inactive),29.3 µM (inactive),> 100 µM (inactive),14.2 µM (inactive),6.04 µM (inactive)
Cc1nn(C(=O)Cc2ccccc2)c2c1C(c1ccc(O)cc1O)SC(=N)N2 (centres undefined),> 100 µM (inactive),> 100 µM (inactive),> 100 µM (inactive),> 100 µM (inactive),> 100 µM (inactive),> 100 µM (inactive),> 100 µM (inactive),> 100 µM (inactive),> 100,> 100 µM (inactive),> 100 µM (inactive),17.2 µM (inactive),> 100 µM (inactive),,,> 100 µM (inactive),> 100 µM (inactive),> 100 µM (inactive),> 100 µM (inactive)
C=CC1=C(C)c2cc3[nH]c(c4c5nc(cc6[nH]c(cc1n2)c(C=O)c6CC)C(C)=C5C(=O)[C@@H]4C(=O)OC)[C@@H](CCC(=O)O)[C@@H]3C,53.3 µM (inactive),> 100 µM (inactive),83.9 µM (inactive),> 100 µM (inactive),63.4 µM (inactive),> 100 µM (inactive),45 µM (inactive),> 100 µM (inactive),35.6,> 100 µM (inactive),,2.54 µM (inactive),32.7 µM (inactive),> 100 µM (inactive),> 100 µM (inactive),> 100 µM (inactive),> 100 µM (inactive),66.5 µM (inactive),
